Test results reported in paper PMC12578388, “Allosteric modulation of the solute carrier transporter SLC39A8 potentiates manganese and cadmium uptake” (The Journal of Clinical Investigation, 2025).

Legend:
Assay type in all cases: cell-based
rat SLC39A8 = target: T1, rat SLC39A8 (Rattus norvegicus, UniProt Q5FVQ0, Y328C); test: Cd uptake in cells expressing mutant rat SLC39A8 (gain of EFV sensitivity)
T1 sequence (Q5FVQ0 20-462 Y328C): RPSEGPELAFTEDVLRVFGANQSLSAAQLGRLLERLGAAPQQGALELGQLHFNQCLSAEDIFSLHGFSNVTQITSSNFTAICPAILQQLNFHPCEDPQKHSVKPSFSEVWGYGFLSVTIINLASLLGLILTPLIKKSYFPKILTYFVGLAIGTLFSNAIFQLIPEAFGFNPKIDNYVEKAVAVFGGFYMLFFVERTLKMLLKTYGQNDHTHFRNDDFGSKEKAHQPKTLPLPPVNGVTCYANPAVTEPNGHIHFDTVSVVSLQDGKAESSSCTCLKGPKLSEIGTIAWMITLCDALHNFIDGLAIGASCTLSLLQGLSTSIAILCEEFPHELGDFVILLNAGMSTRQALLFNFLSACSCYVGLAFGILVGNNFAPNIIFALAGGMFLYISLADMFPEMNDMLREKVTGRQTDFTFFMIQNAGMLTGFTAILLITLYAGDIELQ

pig SLC39A8 = target: T2, pig SLC39A8 (Sus scrofa, UniProt A0A480EKF5, F327C); test: Cd uptake in cells expressing mutant pig SLC39A8 (gain of EFV sensitivity)
T2 sequence (A0A480EKF5 20-461 F327C): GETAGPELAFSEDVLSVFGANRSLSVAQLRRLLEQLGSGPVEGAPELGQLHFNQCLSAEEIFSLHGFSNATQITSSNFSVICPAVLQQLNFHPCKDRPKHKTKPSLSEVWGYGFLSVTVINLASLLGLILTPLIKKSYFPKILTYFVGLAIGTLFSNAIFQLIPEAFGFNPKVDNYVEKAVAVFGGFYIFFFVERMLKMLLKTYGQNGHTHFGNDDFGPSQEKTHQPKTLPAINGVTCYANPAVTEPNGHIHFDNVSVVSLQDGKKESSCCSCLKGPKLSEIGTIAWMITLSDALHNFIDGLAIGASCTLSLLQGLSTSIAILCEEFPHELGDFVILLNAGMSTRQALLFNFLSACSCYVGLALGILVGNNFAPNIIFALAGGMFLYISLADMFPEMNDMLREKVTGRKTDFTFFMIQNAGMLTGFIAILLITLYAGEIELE

mouse SLC39A8 = target: T3, mouse SLC39A8 (Mus musculus, UniProt Q91W10); test: Cd uptake in cells expressing mouse SLC39A8
T3 sequence (Q91W10 20-462): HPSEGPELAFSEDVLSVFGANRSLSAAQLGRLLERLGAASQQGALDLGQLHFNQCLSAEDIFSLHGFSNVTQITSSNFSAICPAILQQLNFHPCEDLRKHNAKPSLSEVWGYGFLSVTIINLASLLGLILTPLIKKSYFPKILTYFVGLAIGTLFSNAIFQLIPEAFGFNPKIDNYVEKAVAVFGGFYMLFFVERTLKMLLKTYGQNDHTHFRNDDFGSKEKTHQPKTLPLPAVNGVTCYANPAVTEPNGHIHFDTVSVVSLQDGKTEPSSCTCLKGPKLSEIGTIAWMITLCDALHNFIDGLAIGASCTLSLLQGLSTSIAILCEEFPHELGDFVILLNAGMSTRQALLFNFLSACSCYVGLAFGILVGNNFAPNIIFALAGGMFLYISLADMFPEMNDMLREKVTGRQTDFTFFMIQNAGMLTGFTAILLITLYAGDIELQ

For `O=C1Nc2ccc(Cl)cc2[C@@](C#CC2CC2)(C(F)(F)F)O1` [compound 1, efavirenz], the “Cd uptake in cells expressing mutant rat SLC39A8 (gain of EFV sensitivity)” value (rat SLC39A8) was “EFV sensitivity could be created by replacing these residues with cysteine in pig F327C and rat Y328C, respectively”, the “Cd uptake in cells expressing mutant pig SLC39A8 (gain of EFV sensitivity)” value (pig SLC39A8) was “EFV sensitivity could be created by replacing these residues with cysteine in pig F327C and rat Y328C, respectively” and the “Cd uptake in cells expressing mouse SLC39A8” value (mouse SLC39A8) was “EFV was able to enhance Cd uptake in cells expressing mouse SLC39A8 but not chicken, frog, or zebrafish”.
